According to US20090274739A1, “METHODS AND COMPOSITIONS FOR TREATING NEOINTIMAL HYPERPLASIA” (THE TRUSTEES OF COLUMBIA UNIVERSITY IN THE CITY OF NEW YORK, priority 2006, published 2009):

Key:
Akt phosphorylation = test: Immunoblot of Akt phosphorylation in VSMC; format: cell-based, mouse
Protocol: (§1) Western blot analysis: The cells were plated in a 100-mm culture dish in DMEM supplemented with 20% FBS for 24 h at 37° C., followed by serum starvation for 48 h. Cells were then treated with different reagents for 30 min. Cells were subsequently lysed on ice for 30 min in RIPA buffer [150 mM NaCl, 100 mM Tris (pH 8.0), 1% Triton X-100, 1% deoxycholic acid, 0.1% SDS, 5 mM EDTA, and 10 mM NaF] supplemented with 1 mM sodium vanadate, 2 mM leupeptin, 2 mM aprotinin, 1 mM phenylmethylsulfonyl fluoride (PMSF), 1 mM DTT, and 2 mM pepstatin A. After centrifugation at 14,000 rpm for 30 min, the supernatant was harvested as the total cellular protein extract, and stored at −70° C. The protein concentration was determined using Bio-Rad protein assay reagent (Richmond, Calif.). The total cellular protein extracts were separated by SDS-polyacrylamide gel electrophoresis (SDS-PAGE) and transferred to nitrocellulose membrane in 20 mM Tris-HCl (pH 8.0) containing 150 mM glycine and 20% (v/v) methanol.
(§2) Membranes were blocked with 5% nonfat dried milk in PBS containing 0.05% Tween 20 and incubated with antibodies against phospho-(Thr^202/Tyr^204) p42/p44^MAPK and p42/p44^MAPK, phospho-Akt([…]) and anti-Akt, p70^S6K, 4EBP-1. Blots were washed three times in PBS buffer, followed by incubation with the appropriate HRP-linked IgG. The specific proteins in the blots were visualized using an enhanced chemiluminescence reagent (NEN, Boston, Mass.).
(§3) VSMC were plated on 100-mm dishes, serum starved for 72 h in DMEM containing 0.1% FBS, and stimulated with 0.6 or 6 nM (10 or 100 ng/ml) leptin. Extracts were prepared by brief sonication in HKM buffer [40 mM HEPES-KOH (pH 7.6), 7.5 mM MgCl2, 0.5 mM DTT] or, in the case of Akt phosphorylation studies, by lysing cells on ice for 30 min in RIPA buffer. 70 μg of protein per sample were subjected to immunoblotting by standards protocols. Imaging and densitometry were performed on an Odyssey infrared system (Li-Cor, Lincoln, Neb.).

[1] = system: MAPK (p44/p42, ERK1/2) phosphorylation; test: Immunoblot of MAPK (ERK1/2, p44/p42) phosphorylation in VSMC; format: cell-based, mouse
Protocol: as §1, §2, §3

[2] = system: p70S6K and 4E-BP1 phosphorylation (mTOR substrates); test: Immunoblot of p70S6K and 4E-BP1 phosphorylation in VSMC; format: cell-based, mouse
Protocol: as §1
Blots were washed three times in PBS buffer, followed by incubation with the appropriate HRP-linked IgG. The specific proteins in the blots were visualized using an enhanced chemiluminescence reagent (NEN, Boston, Mass.).
Starved murine VSMCs were incubated for 20 min with leptin (100 ng/ml) or 10% FBS, in the absence or presence of rapamycin (100 nmol/L).
as §3

[3] = system: murine femoral artery wire injury model (neointimal hyperplasia); test: Femoral artery wire injury model, morphometry of neointimal formation; format: in vivo, mouse; design: Lumen / Media / Intima / TVA (total vessel area): unit not given here
Excerpt: Animal Models and Drug Treatments. Wild type C57BL/6J background mice and mice deficient for leptin (C57BL/6J-Lepob; ob/ob) or the leptin receptor (C57BL/6J-m+/+Lepdb; db/db) were purchased from Charles Jackson Laboratories, Maine. Mice were obtained at ages 6-8 weeks old and average weight 15 g. Animals were fed standard rodent chow and tap water ad libitum. Procedures and animal care were approved by the Institutional Animal Care and Use Committee. Mice were subjected to femoral artery wire injury or sham injury described below 24 hr prior to starting pharmacological treatments. Sirolimus was administered by intraperitoneal injection once per day for 14 days as a suspension in 0.2% sodium carboxymethyl cellulose and 0.25% polysorbate-80; duplicate experiments were accomplished with 0.5% DMSO. Leptin or LY294002 was administered by intraperitoneal injection once per day for 14 days as a suspension in PBS. Plasma leptin levels were measured at baseline, 3, 6, and 10 hr after leptin injection using an ELISA assay (R&D). Leptin plus the vehicle used for both sirolimus and LY294002 was used as the control group for the treatment groups with sirolimus and LY294002. After the 2-week treatment, animals were processed for femoral artery morphometry.
Femoral Artery Injury Model. Endoluminal injury of bilateral femoral arteries was performed according to the method of Roque et al. with minor modification 27. […] Briefly, to denude and dilate femoral arteries, a 0.014″ angioplasty guidewire (Guidant) was passed endoluminally 3 times to the level of the aortic bifurcation. A sham protocol was performed where the arteries underwent dissection, clamping, and ligature without passage of the guidewire.
Computer-aided quantitative morphometry to measure luminal, medial, intimal, and vessel areas were performed as previously described 27 with minor modification. Mice were euthanized via CO2 asphyxiation prior to en bloc excision of hind limbs. Briefly, multiple segments of the common femoral artery at the level of injury were fixed in 10% Zinc Formalin, embedded in paraffin, sectioned at […] thickness, and subjected to Elastic-Van Gieson staining at a Columbia University Core Histology facility. In many cases, arteries underwent immunohistochemical staining for smooth muscle a-actin to highlight the media and neointima. Photomicrographs were captured on Adobe Photoshop 7.0 and transferred to Scion Image software for quantitative analysis. Specimens were analyzed by two independent operators blinded to the treatment groups. Microsoft Excel software was used to calculate the RNI values from I/M ratios in the absence and presence of pharmacological inhibitors, as detailed in the text.
Surgical Procedures: The mouse femoral artery wire injury model of was used with minor modifications (Roque M, et al., Arterioscler Thromb Vasc Biol, 2000, 20(2):335-42). Briefly, forty-two male mice were studied. Endoluminal injury to the common femoral artery was produced by either 3 passages of a 0.014″ diameter angioplasty guidewire (Guidant, Santa Clara, Calif.). […] While being viewed under a surgical microscope, a groin incision was made and the femoral artery was isolated and temporarily clamped distal to the inguinal ligament. An arteriotomy was performed and the guidewire was passed 3 times to the level of the aortic bifurcation. The artery was then ligated proximal to the arteriotomy. A sham protocol was carried out on the contralateral side where the arteries underwent dissection, temporary clamping, and ligature, without passage of the wire. The formation of the neointima was confirmed in this model as being comprised mainly of VSMCs through immunohistochemical staining of representative sections for α-smooth muscle actin via a commercial kit (Sigma).
For all treatment protocols, rapamycin was administered by intraperitoneal injection once per day, for 14 days, as a suspension in 0.2% sodium carboxymethyl cellulose and 0.25% polysorbate-80. […]

[4] = Example 2, leptin 100 ng/ml, decreasing thereafter at 45 min
[5] = wire injury, leptin 0.4 mg/kg daily i.p. 14 days, mean ± SD

Leptin: recombinant leptin; hormone derived from adipose tissue, encoded by the Ob gene
phosphorylation of Akt (on serine 473) (Akt phosphorylation; Example 1, leptin 10 ng/mL): stimulated the phosphorylation | time of maximum Akt phosphorylation (Akt phosphorylation; [4]): 10 min | Thr-308 phosphorylation of Akt (Akt phosphorylation; Example 5, leptin 6 nM): stimulated | phosphorylation of Ser-473 of Akt (Akt phosphorylation; Example 5, leptin 6 nM): stimulated the phosphorylation | phosphorylation of the p44 and p42 forms of MAPK ([1]; Example 1, leptin 10 ng/mL): stimulated the phosphorylation | time of maximum ERK1/2 phosphorylation [1, 4]: 10 min | phosphorylation of MAPK ([1]; Example 5, leptin 6 nM): stimulated | phosphorylation of S6K and 4EBP-1 ([2]; Example 1, leptin 10 ng/mL, data not shown): stimulated the phosphorylation | phosphorylation of p70S6K and 4E-BP1 ([2]; Example 2, leptin 100 ng/ml): up-phosphorylated | S6K phosphorylation ([2]; Example 5, leptin 0.6 nM, data not shown): stimulated S6K phosphorylation, albeit less robustly | phosphorylation of S6K ([2]; Example 5, leptin 6 nM): stimulated the phosphorylation | intimal area and intimal:media ratio ([3]; Example 2, leptin 0.4 mg/kg/d i.p. 14 days vs vehicle): significantly increased | I/M (intima:media ratio) [3, 5]: 1.883 ± 0.140 | Intima [3, 5]: 0.028 ± 0.004 | Lumen [3, 5]: 0.010 ± 0.004 | Media [3, 5]: 0.015 ± 0.001 | TVA (total vessel area) [3, 5]: 0.053 ± 0.007
